Laboratory results as given in patent US6916616B2, “Stabilized aqueous nucleoside triphosphate solutions” (priority 1996, dated 2005).

Columns and labels:
Type in all cases: physicochemical
[1] = Stabilization at room temperature (real-time model, 204 days, 20° C.); details: for difference in decrease of triphosphate content pH 8.3 vs pH 7.5: 204 days
Protocol: (§1) d-NTP solutions at a concentration of 100 to 110 mmol/l were adjusted to pH values between 7.5 and 8.3 with sodium hydroxide solution. The sample was stored at 35° C., 22° C., 4° C. and −20° C. Aliquots were removed at various time points and the purity was examined by means of HPLC. The relative amount of the tri, di and monophosphate as well as of the free base was determined by integrating the areas.
After 204 days (20° C.) the difference in the pH stabilization became apparent (in the real-time model). […] In the case of d-GTP solutions the triphosphate content decreased for example by ca. 6.8% at pH 7.5 and by ca. 5.2% at pH 8.3 (difference 23%).

[2] = Stress experiments of d-NTP solutions at 35° C., triphosphate content by HPLC; details: pH 8.3 compared to pH 7.5, 35° C., three independent stress experiments, samples between 7 and 89 days
Protocol: as §1, with “areas. The stabilization was estimated by the following formula from three independent stress experiments of d-NTPs at pH 8.3 and 7.5 at 35° C. in which samples were taken at intervals between 7 and 89 days. Δ content (pH 8.3)−Δ content (7.5)×100 Δ content (pH 7.5) in which Δ content (pH . . . )=content (t=0)−content (t)” for “areas.”

[3] = Determination of the pH optimum of the d-NTPs (35 days at 35° C., HPLC); details: 100 to 110 mmol/l
Protocol: d-NTP solutions (dCTP, dTTP, dUTP) at a concentration of 100 to 110 mmol/l were adjusted to pH values between 7.5 and 12 (d-ATP, dGTP not pH 7.9 and 8.3) with sodium hydroxide solution. The sample was stressed for 35 days at 35° C. and subsequently the purity was examined by means of HPLC. The relative amount of the tri, di and monophosphate as well as of the free base was determined by integrating the areas.

Row | SMILES | difference in decrease of triphosphate content pH 8.3 vs pH 7.5 [1] [%] | decrease of triphosphate content ([1]; pH 7.5, 204 days) | decrease of triphosphate content ([1]; pH 8.3, 204 days) | stabilization, average value [2] [%] | stabilization, maximum value [2] [%] | stabilization, minimum value [2] [%] | degradation up to pH 12 [3]
1 | Nc1nc2c(ncn2[C@H]2C[C@H](O)[C@@H](COP(=O)(O)OP(=O)(O)OP(=O)(O)O)O2)c(=O)[nH]1 [d-GTP] | 23 | ca. 6.8% | ca. 5.2% | 21 | 30 | 12 | –
2 | Cc1cn([C@H]2C[C@H](O)[C@@H](COP(=O)(O)OP(=O)(O)OP(=O)(O)O)O2)c(=O)[nH]c1=O [d-TTP] | – | – | – | 5 | 17 | 26 | –
3 | Nc1ccn([C@H]2C[C@H](O)[C@@H](COP(=O)(O)OP(=O)(O)OP(=O)(O)O)O2)c(=O)n1 [d-CTP] | – | – | – | 20 | 37 | 10 | deaminated at pH 12 to form d-UTP
4 | Nc1ncnc2c1ncn2[C@H]1C[C@H](O)[C@@H](COP(=O)(O)OP(=O)(O)OP(=O)(O)O)O1 [d-ATP] | 17 | ca. 7.6% | ca. 6.3% | 19 | 33 | 9 | –
5 | O=c1ccn([C@H]2C[C@H](O)[C@@H](COP(=O)(O)OP(=O)(O)OP(=O)(O)O)O2)c(=O)[nH]1 [d-UTP] | – | – | – | 5 | 15 | 25 | –
